pKi: −log10 of the molar value. Like-named read-outs stand apart in the source and are kept apart here.
Molecular target: T1, hVAChT (Homo sapiens, UniProt Q16572)
T1 sequence (Q16572 1-532): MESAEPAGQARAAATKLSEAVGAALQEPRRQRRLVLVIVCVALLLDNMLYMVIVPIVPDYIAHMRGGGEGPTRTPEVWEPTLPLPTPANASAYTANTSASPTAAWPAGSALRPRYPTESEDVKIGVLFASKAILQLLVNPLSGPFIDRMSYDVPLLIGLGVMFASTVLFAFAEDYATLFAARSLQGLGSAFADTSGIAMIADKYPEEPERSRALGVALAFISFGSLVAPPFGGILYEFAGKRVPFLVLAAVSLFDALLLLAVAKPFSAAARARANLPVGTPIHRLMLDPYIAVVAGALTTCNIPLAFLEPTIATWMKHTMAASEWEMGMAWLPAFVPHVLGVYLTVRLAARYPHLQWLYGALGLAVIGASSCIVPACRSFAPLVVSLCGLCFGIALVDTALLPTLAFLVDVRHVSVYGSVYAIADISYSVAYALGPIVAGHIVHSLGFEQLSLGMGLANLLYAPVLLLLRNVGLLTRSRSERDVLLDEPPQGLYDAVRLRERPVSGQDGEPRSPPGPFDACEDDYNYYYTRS
Experiment: Competitive binding assay with
Details: for inhibition of (-)-[^3H]TZ659 binding to VAChT: competitive binding studies, other CNS receptor ligands

[1] = radioligand (-)-[^3H]TZ659 2 nM, test ligands 0.1 nM to 10 μM, 60 min, 25 °C

Row | Structure (SMILES) | inhibition of (-)-[^3H]TZ659 binding to VAChT | pKi [1] | pKi
1 | Cn1cc(-c2ccncc2)c(-c2ccc(OCc3ccc4ccccc4n3)cc2)n1 [MP-10] | No inhibition | < 6.00 | 
2 | COc1cc2c(cc1OC)[C@H]1C[C@@H](O)[C@H](CC(C)C)CN1CC2 [DTBZ] | No inhibition | < 6.00 | 
3 | CCc1cc(Cl)c(OC)c(C(=O)NC[C@@H]2CCCN2CC)c1O [S-(-)-Eticlopride] | No inhibition | < 6.00 | 
4 | COc1ccccc1N1CCN(CC(C(=O)NC(C)(C)C)c2ccccc2)CC1 (stereo not drawn) [WAY-100135] | No inhibition | < 6.00 | 
5 | COc1cc2c(cc1OC)CN(CCCCNC(=O)c1cc(C)ccc1OCCF)CC2 [ISO-1] | No inhibition | < 6.00 | 
6 | CC(C)=CCN1CC[C@]2(C)c3cc(O)ccc3C[C@H]1[C@H]2C [(+)-Pentazocine] | No inhibition |  | < 6.00
